Test results from patent US9745325B2, “Fused heterocyclic compound” (Takeda Pharmaceutical Company Limited, priority 2014, dated 2017).

Assays:
[1] = target: T1, CDC2L6/CycC (CDK19) (Homo sapiens, UniProt Q9BWU1); test: CDK19 inhibitory activity (Kinase Tracer-236 / Eu-anti-GST fluorescence assay); type: binding; set-up: Percent inhibition of CDK19 activity (%): concentration or dose not given beside the values; settings: test compound concentration given as '1 1.1.1\4' [sic]
T1 construct: purchased Carna Biosciences Inc
T1 sequence (Q9BWU1 whole entry): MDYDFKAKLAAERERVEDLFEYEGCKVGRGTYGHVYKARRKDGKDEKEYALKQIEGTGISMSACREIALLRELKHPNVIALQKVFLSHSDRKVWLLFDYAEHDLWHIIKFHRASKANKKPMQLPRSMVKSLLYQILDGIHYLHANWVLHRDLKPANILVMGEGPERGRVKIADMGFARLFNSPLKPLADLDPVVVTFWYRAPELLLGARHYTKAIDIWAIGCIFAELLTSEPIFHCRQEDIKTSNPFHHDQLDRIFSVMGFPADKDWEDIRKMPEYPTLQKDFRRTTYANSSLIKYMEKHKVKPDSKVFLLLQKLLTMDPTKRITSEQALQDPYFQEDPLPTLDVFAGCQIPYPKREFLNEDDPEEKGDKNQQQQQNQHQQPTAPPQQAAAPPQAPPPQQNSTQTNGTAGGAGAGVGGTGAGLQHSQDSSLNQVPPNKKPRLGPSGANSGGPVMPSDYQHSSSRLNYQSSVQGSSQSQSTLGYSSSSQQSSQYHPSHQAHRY
T1 sequence (P24863 whole entry partner): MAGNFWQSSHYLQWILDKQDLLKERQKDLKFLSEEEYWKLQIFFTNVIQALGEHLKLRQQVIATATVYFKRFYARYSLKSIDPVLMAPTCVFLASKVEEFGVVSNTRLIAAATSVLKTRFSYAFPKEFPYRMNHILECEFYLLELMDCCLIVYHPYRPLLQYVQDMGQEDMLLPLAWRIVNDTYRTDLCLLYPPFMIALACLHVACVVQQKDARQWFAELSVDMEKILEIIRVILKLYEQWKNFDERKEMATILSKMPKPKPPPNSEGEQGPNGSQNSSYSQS
Method in brief: (§1)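 Tracer-displacement TR-FRET binding assay: compound with kinase, Eu-cryptate anti-GST antibody and 60 nM Kinase Tracer-236 (pre-dilution level), 1 h at room temperature; ex 320 nm, em 615/665 nm. Percent inhibition is relative to no-compound control and a 10 μM control-compound blank.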

[2] = target: T2, CDK8/CycC (Homo sapiens, UniProt P49336); test: CDK8 inhibitory activity (Kinase Tracer-236 / Eu-anti-GST fluorescence assay); type: binding; set-up: Percent inhibition of CDK8 activity (%): concentration or dose not given beside the values; settings: test compound concentration given as '1 1.1.1\4' [sic]
T2 construct: purchased Carna Biosciences
T2 sequence (P49336 whole entry): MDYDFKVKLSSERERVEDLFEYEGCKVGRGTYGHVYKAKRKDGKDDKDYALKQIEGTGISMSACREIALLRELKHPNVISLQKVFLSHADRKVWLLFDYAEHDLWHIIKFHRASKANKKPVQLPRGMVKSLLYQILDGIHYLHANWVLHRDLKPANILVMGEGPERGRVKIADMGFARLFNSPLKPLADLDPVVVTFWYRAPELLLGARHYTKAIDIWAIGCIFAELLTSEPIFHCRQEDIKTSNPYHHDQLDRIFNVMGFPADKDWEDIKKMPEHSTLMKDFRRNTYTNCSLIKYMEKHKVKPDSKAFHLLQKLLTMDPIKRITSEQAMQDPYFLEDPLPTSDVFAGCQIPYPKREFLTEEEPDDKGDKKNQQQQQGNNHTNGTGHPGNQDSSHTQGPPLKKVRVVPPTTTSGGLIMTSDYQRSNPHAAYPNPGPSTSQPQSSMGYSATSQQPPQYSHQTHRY
T2 sequence (P24863 whole entry partner): as the sequence (P24863 whole entry partner) above
Method in brief: as §1

[3] = system: SW480 human colorectal cancer cells; test: Antitumor efficacy in mice bearing SW480 human colorectal cancer cells; type: in vivo, BALB/c female nude mice; settings: oral, 14 days
Protocol: The compound of the present invention was evaluated for its antitumor efficacy in mice bearing cancer derived from SW480 human colorectal cancer cells by the following method.
SW480 human colorectal cancer cells were transplanted into 6- to 7-week-old BALB/c female nude mice (CLEA Japan) by subcutaneous injection of 2.0×10^6 cells per mouse. At 7 to 14 days after the transplantation, the size of the engrafted tumor was measured, and the tumor volume was calculated according to the following formula. Tumor volume=major axis×minor axis×minor axis×(½)
Test subjects having an engrafted tumor with a tumor volume of approximately 100 mm^3 were selected and used in the experiment (6 subjects per group). A suspension of each test compound in a 0.5% methylcellulose solution (Wako Pure Chemical Industries) was orally administered to the mice for 14 days at the dose (mg/kg, indicating the amount per dose) and the number of doses shown in Table 4. On the day before the start of the administration and the day before the completion of the administration, the tumor size was measured, and the tumor volume was calculated.
Percent tumor growth (T/C (%)) of the test compound administration group relative to the control administration group was calculated according to the following formula. T/C (%)=(tumor volume of the test compound administration group after the completion of the administration−tumor volume of the test compound administration group at the day before the start of the administration)/(tumor volume of the control administration group after the completion of the administration−tumor volume of the control administration group at the day before the start of the administration))×100

[4] = system: human multiple myeloma RPMI8226 cells; test: Inhibitory activity against human multiple myeloma RPMI8226 cell growth (CellTiter-Glo); type: cell-based; settings: Homo sapiens, RPMI-8226, 192 h, 1 μM test compound, cultured for 8 days; read-out: Percent inhibition of RPMI8226 cell growth (%)
Method in brief: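 RPMI8226 cells (300/well) cultured 1 day at 37 °C, 5% CO2, then given compound at 1 μM for 8 days. ATP luminescence (CellTiter-Glo) read; percent inhibition relative to 0.1% DMSO wells.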

Cc1c(Oc2sc(C(N)=O)c3c2-c2sncc2CC3)ccc[n+]1[O-] [Example 9, 8-((2-Methyl-1-oxidopyridin-3-yl)oxy)-4,5-dihydrothieno[3,4-g][1,2]benzothiazole-6-carboxamide]
Percent inhibition of CDK19 activity (%) [1]: 98% | Percent inhibition of CDK8 activity (%) [2]: 97% | T/C (%) ([3]; 5 mg/kg, 1 dose per day): 30% | inhibition at 1 µM [4]: 63%

NC(=O)c1ccc(Oc2sc(C(N)=O)c3c2-c2sncc2CC3)cn1 [Example 13, 8-((6-Carbamoylpyridin-3-yl)oxy)-4,5-dihydrothieno[3,4-g][1,2]benzothiazole-6-carboxamide]
Percent inhibition of CDK19 activity (%) [1]: 98% | Percent inhibition of CDK8 activity (%) [2]: 97% | T/C (%) ([3]; 15 mg/kg, 1 dose per day): 50% | inhibition at 1 µM [4]: 69%

COCCNC(=O)c1ccc(Oc2sc(C(N)=O)c3c2-c2sncc2CC3)cn1 [Example 18, 8-((6-((2-Methoxyethyl)carbamoyl)pyridin-3-yl)oxy)-4,5-dihydrothieno[3,4-g][1,2]benzothiazole-6-carboxamide]
Percent inhibition of CDK19 activity (%) [1]: 100% | Percent inhibition of CDK8 activity (%) [2]: 103% | T/C (%) ([3]; 10 mg/kg, 1 dose per day): 30% | inhibition at 1 µM [4]: 63%

Cc1nc(C(=O)NCC(C)(C)O)ccc1Oc1sc(C(N)=O)c2c1-c1sncc1CC2 [Example 24, 8-((6-((2-Hydroxy-2-methylpropyl)carbamoyl)-2-methylpyridin-3-yl)oxy)-4,5-dihydrothieno[3,4-g][1,2]benzothiazole-6-carboxamide]
Percent inhibition of CDK19 activity (%) [1]: 99% | Percent inhibition of CDK8 activity (%) [2]: 102% | T/C (%) ([3]; 10 mg/kg, 1 dose per day): 32% | inhibition at 1 µM [4]: 64%

Cc1nn(C)c(C)c1Oc1sc(C(N)=O)c2c1-c1sncc1CC2 [Example 32, 8-((1,3,5-Trimethyl-1H-pyrazol-4-yl)oxy)-4,5-dihydrothieno[3,4-g][1,2]benzothiazole-6-carboxamide]
Percent inhibition of CDK19 activity (%) [1]: 100% | Percent inhibition of CDK8 activity (%) [2]: 107% | T/C (%) ([3]; 15 mg/kg, 2 doses per day): 36% | inhibition at 1 µM [4]: 63%
